Test results taken from patent US20120318750A1, “METHODS AND COMPOSITIONS FOR COMPLEX BINDING OF METAL IONS” (ChemseQ International AB, priority 2009, published 2012).

Assays:
[1] = Solubility of sequestering agent in a copper(II) chloride solution on stepwise acidification; assay type: physicochemical; conditions: 5.66 mM sequestrent, 300 ppm copper, room temperature
Procedure: A stock solution of 4-dodecyl-3,6,9-tri(carboxymethyl)-3,6,9-triazaundecane diacid and copper in the form of copper(II) chloride (20 ml, in a molar ratio of 1.2:1=sequestering agent: copper(II) chloride, [Cu^2+]=900 ppm, pH=4.5) was diluted with milliQ-water to a total volume of 60 ml in a beaker, corresponding to a solution with an initial sequestrent and copper concentration of 5.66 mM and 300 ppm, respectively. To this solution 2 M aqueous hydrogen chloride was added stepwise, under magnetical stirring at room temperature, to follow the solubility behavior of 4-dodecyl-3,6,9-tri(carboxymethyl)-3,6,9-triazaundecane diacid.

[2] = Precipitation/recovery of sequestering agent from a copper(II) chloride solution by acidification to pH 1.8; conditions: acidified to pH=1.8, 5.66 mM sequestrent, 300 ppm copper
Procedure: A stock solution of 4-dodecyl-3,6,9-tri(carboxymethyl)-3,6,9-triazaundecane diacid and copper in the form of copper(II) chloride (20 ml, in a molar ratio of 1.2:1=sequestering agent: copper(II) chloride, [Cu^2+]=900 ppm, pH=4.5) was diluted with milliQ-water to a total volume of 60 ml in a beaker, corresponding to a solution with an initial sequestrent- and copper concentration of 5.66 mM and 300 ppm, respectively. To this solution 2 M aqueous hydrogen chloride was added under magnetical stirring at room temperature to pH=1.8. A light blue precipitate was removed by filtration (P3 glass filter) leaving a colourless transparent filtrate. The light blue precipitate was dried in a vacuum chamber at 0.8 mbar for 19 hours resulting in a light blue solid.
(§1) 270 mg precipitate was obtained. Organic analyses were made with the aid of an ESI-MS (recorded on a Micromass Quattro II mass spectrometer coupled with a Harvard Apparatus Pump 11 syringe pump directly into the ESI source of the mass spectrometer at a flow rate of 6 μl/min. The data was processed using MassLynx 4.0 software) in positive and negative mode.
The precipitate contained exclusively of 4-dodecyl-3,6,9-tri(carboxymethyl)-3,6,9-triazaundecane diacid and complexed sequestering agent. […] Metal analyses were made with the aid of a Perkin-Elmer AA300 atomic absorption spectrometer. […]

[3] = Precipitation/recovery from a copper(II) chloride solution by electrolysis with cation exchange membrane, then acidification (Experimental Example 7); conditions: electrolysis starting pH 4.1, 60 min, 250-300 mA
Procedure: The recovery of 4-dodecyl-3,6,9-tri(carboxymethyl)-3,6,9-triazaundecane diacid was performed in a two-step procedure.
In the first stage metal ions was removed from the solution by electrolysis at a specified pH and current intensity. The equipment to perform the electrolysis consisted of a Manson EP-60.1 rectifier and two platinum electrodes in form of a spring (anode) and a basket (cathode). The electrodes were separated with a cationic exchange membrane (CMI-7000 Cation exchange membranes—Membranes International INC.)
To a solution of 4-dodecyl-3,6,9-tri(carboxymethyl)-3,6,9-triazaundecane diacid and copper in the form of copper(II) chloride (30 ml, in a molar ratio of 1.2:1=sequestering agent: copper(II) chloride, [Cu^2+]=900 ppm, pH=4.5) in a beaker was sodium sulphate (corresponding to 0.1 M), in order to receive wished current intensity. The pH of the starting solution was 4.1. The total volume of the solution was 300 ml. The electrolysis was performed during 60 min. at a current intensity of 250-300 mA.
In the second step the electrolysis solution was acidified with 1 M aqueous hydrogen chloride to pH=2.4. The precipitated material was removed by filtration (glass filter—Schott u.Gen Mainz 1G2) and dried in a vacuum chamber at 0.8 mbar for 22 hours.
as §1, with “198.7” for “270”, “μL/min.” for “μl/min.”, “mode, and NMR with a Varian 500 instrument. The precipitate contained exclusively of 4-dodecyl-3,6,9-tri(carboxymethyl)-3,6,9-triazaundecane diacid. Metal analyses were made with the aid of a Perkin-Elmer AA300 atomic absorption spectrometer.” for “mode.”

[4] = Flotation of copper ions with sequestering agent in a flotation cell, metal analysis of foam; conditions: 1 mg copper as copper sulphate, sequestering agent:metal 1.2:1, pH 5.5, flotation approx. 30 min
[5] = Flotation of manganese ions with sequestering agent in a flotation cell, metal analysis of foam; conditions: 1 mg manganese as manganese sulphate, sequestering agent:metal 1.2:1, pH 5.5, flotation approx. 30 min
Description: In order to investigate the separability of a sequestering agent according to the invention a small flotation cell was used. This flotation cell has a volume of approximately 1.6 l, a height of 315 mm and an inner diameter of 80 mm. Compressed air used to form the foam is led through a porous sintered glass filter of diameter 60 mm with a nominal porosity of 10-16 μm (“porosity 4”) mounted at the bottom of the flotation cell. At the top of the flotation cell a cylinder of an inner diameter of 30 mm and a height of 415 mm, with an outlet placed at 72 mm from the bottom, is mounted. The outlet is used to collect the foam and thereby the chelate according to the invention. At the top of the latter cylinder an adjustable valve is mounted to be able to better control the foaming and to direct the foam to the outlet.
was prepared from 2-aminoethanol, tert-butyl bromoacetate and tert-butyl 2-aminotetradecanoate as main ingredients using conventional techniques and was therafter mixed in 500 ml deionised water with 1 mg of manganese in the form of manganese sulphate (in a molar ratio of 1.2:1=sequestering agent: manganese sulphate) and a flotation agent (N,N-dimethyldodecylamine N-oxide, in a molar ratio of 10:1=flotation agent:sequestering agent).
The pH-value of the solution was adjusted to pH 5.5 with 0.1 M sodium hydroxide solution or 0.1 M hydrogen chloride solution. […]

[6] = Precipitation/recovery from a copper(II) sulfate solution by electrolysis, then acidification (Experimental Example 6); conditions: electrolysis pH 12, 50 min, 300-350 mA
Procedure: The recovery of 2-dodecyl-3-carboxymethyl-3-azapentane diacid was performed in a two-step procedure.
In the first stage metal ions was removed from the solution by electrolysis at a specified pH and current intensity: The equipment to perform the electrolysis consisted of a Manson EP-601 rectifier and two platinum electrodes in form of a spring (anode) and a basket (cathode).
To a solution of 2-dodecyl-3-carboxymethyl-3-azapentane diacid and copper in the form of copper(II) sulfate (30 ml, in a molar ratio of 1.2:1=sequestering agent: copper(II) sulfate, [sequestrent]=10.5 mM, [Cu^2+]=655 ppm) in a beaker was sodium sulphate (corresponding to 50 mg/l) added, in order to receive wished current intensity. Solutions of 1 M aqueous sodium hydroxide was added to adjust the pH to 12. The total volume of the solution was 150 ml. The electrolysis was performed during 50 min. at a current intensity of 300-350 mA.
In the second step the electrolysis solution was acidified with 1 M aqueous hydrogen chloride to pH=2.4. The precipitated material was removed by filtration (glass filter—Schott u.Gen Mainz 1G2) and dried in a vacuum chamber at 0.8 mbar for 24 hours.
as §1, with “99.6” for “270”, “mode, and NMR with a Varian 500 instrument. The precipitate contained exclusively of 2-dodecyl-3-carboxymethyl-3-azapentane diacid.” for “mode.”
Metal analyses were made with the aid of a Perkin-Elmer AA300 atomic absorption spectrometer.

solubility observation ([1]; pH<0.5) | solubility observation ([1]; pH=2.8-0.5) | solubility observation ([1]; pH=4.5-2.8) | Structure (SMILES) | copper found in the filtrate [2] [%] | copper found in the precipitate [2] [%] | copper found on the cathode [3] [%] | copper found in the filtrate ([3]; then acidified to pH=2.4) [%] | copper found in the precipitate ([3]; then acidified to pH=2.4) [%] | added copper found in the foam [4] [%] | added manganese found in the foam [5] | copper found on the cathode [6] [%] | copper found in the filtrate ([6]; then acidified to pH=2.4) [%] | copper found in the precipitate ([6]; then acidified to pH=2.4) [%]
A clear blue aqueous solution | Precipitated material is observed | A clear blue aqueous solution | CCCCCCCCCCCCC(CN(CCN(CC(=O)O)CC(=O)O)CC(=O)O)N(CC(=O)O)CC(=O)O (stereo not drawn) [4-dodecyl-3,6,9-tri(carboxymethyl)-3,6,9-triazaundecane diacid] | 1 | 99 | 99.8 | 0.1 | 0.1 | – | – | – | – | –
– | – | – | CCCCCCCCCCCCC(C(=O)O)N(CC(=O)O)CC(=O)O (stereo not drawn) [2-dodecyl-3-carboxymethyl-3-azapentane diacid] | – | – | – | – | – | ~70 | About 10% | 99.4 | 0.1 | 0.5
– | – | – | CCCCCCCCCCCCC(C(=O)O)N(CCN(CC(=O)O)CC(=O)O)CC(=O)O (stereo not drawn) [2-dodecyl-3,6-di(carboxymethyl)-3,6-diazaoctane diacid] | – | – | – | – | – | ~65 | About 35% | – | – | –
